The results in this text go back to ChEMBL document CHEMBL3779893, “Identification of novel GLUT inhibitors” (Bioorg Med Chem Lett, 2016).

The target in experiment [1] is T1, Solute carrier family 2, facilitated glucose transporter member 1 (Homo sapiens, UniProt P11166).
T1 sequence (P11166 whole entry): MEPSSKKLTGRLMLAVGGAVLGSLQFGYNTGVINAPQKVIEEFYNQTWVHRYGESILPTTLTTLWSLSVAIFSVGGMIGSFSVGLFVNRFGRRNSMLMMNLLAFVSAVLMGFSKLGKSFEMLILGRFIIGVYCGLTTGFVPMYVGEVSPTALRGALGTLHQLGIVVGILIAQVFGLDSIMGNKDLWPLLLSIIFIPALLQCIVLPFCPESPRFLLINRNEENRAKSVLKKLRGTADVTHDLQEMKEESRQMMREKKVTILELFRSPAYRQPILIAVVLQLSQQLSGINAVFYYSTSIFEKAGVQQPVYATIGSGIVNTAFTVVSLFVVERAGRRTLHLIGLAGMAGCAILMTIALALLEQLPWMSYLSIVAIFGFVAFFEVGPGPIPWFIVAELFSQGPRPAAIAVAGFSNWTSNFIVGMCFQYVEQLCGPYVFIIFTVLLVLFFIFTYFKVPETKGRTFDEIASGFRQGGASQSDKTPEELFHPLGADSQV
Description: Inhibition of human GLUT1 expressed in DLD1 cells assessed as ATP production co-incubated with 100 mM glucose for 16 hrs by CellTiter-Glo assay in presence of oxidative phosphorylation inhibitor rotenone. Format: cell-based, DLD-1. On the technique in general: ATP-based viability assays read luminescence as a measure of living cells.

In experiment [2] the target is T2, Solute carrier family 2, facilitated glucose transporter member 3 (Homo sapiens, UniProt P11169).
T2 sequence (P11169 whole entry): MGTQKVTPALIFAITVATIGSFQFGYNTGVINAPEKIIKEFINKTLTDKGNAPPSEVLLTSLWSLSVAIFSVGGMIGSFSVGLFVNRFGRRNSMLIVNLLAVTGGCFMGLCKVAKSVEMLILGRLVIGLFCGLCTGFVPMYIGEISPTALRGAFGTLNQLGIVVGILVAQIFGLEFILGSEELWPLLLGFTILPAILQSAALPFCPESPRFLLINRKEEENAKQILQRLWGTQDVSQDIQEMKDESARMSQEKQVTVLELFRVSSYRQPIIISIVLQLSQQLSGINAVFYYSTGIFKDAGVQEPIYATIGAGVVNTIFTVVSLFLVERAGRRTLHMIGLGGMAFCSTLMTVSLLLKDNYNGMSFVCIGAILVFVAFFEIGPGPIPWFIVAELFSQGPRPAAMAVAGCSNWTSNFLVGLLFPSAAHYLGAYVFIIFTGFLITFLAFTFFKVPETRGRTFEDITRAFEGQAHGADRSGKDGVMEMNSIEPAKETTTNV
Description: Inhibition of human GLUT3 expressed in GLUT1 knock-out DLD1 cells assessed as ATP production co-incubated with 300 mM glucose for 16 hrs by CellTiter-Glo assay in presence of oxidative phosphorylation inhibitor rotenone. In kind it is cell-based, DLD-1.

Experiment [3] deals with T3, Solute carrier family 2, facilitated glucose transporter member 2 (Homo sapiens, UniProt P11168).
T3 sequence (P11168 whole entry): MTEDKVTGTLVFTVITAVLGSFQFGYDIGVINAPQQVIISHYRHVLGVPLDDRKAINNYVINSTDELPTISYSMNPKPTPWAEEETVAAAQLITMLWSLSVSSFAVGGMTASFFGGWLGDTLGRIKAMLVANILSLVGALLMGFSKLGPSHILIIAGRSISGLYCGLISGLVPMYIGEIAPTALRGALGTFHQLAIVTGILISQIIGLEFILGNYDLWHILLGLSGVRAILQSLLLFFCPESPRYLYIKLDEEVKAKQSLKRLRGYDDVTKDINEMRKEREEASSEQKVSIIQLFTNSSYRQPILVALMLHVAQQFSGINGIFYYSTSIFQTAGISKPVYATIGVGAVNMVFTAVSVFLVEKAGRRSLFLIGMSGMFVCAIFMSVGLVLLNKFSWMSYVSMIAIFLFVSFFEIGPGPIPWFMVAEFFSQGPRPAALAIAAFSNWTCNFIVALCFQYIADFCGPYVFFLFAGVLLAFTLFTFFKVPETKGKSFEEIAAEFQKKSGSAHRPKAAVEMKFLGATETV
Description: Inhibition of human GLUT2 expressed in CHO cells assessed as ATP production co-incubated with 30 mM fructose for 16 hrs by CellTiter-Glo assay in presence of oxidative phosphorylation inhibitor rotenone. Format: cell-based.

Usually IC50 stands for the concentration needed to halve the response being measured.

`COc1ccccc1N1CCN(c2nnnc3c2cnn3-c2ccccc2)CC1`: the 50% inhibitory concentration (IC50) in experiment [1], in experiment [2] and in experiment [3] was more than 10000 nM in each case.

Take `COc1ccccc1C1CCN(c2ncnc3c2cnn3-c2ccccc2)CC1`: the IC50 in experiment [1] was 1900 nM; in experiment [2], more than 10000 nM; in experiment [3], more than 10000 nM.

`COc1ccccc1N1CCN(c2nccc3c2cnn3-c2ccccc2)CC1`: the results for the IC50 in experiment [1], in experiment [2] and in experiment [3] were 4000 nM, 2000 nM and 5000 nM, respectively.

Regarding `COc1ccccc1N1CCN(c2ncnc3c2cnn3-c2cc(F)ccc2OC)CC1`, the IC50 is 30 nM in experiment [1], 320 nM in experiment [2] and 880 nM in experiment [3].

As for `COc1ccccc1N1CCN(c2ncnc3c2cnn3-c2ccccc2)CC1C` (stereo not given), the IC50 in experiment [1] came out at 14 nM; in experiment [2], 120 nM; in experiment [3], 1400 nM.

Consider `COc1ccccc1N1CCN(c2ncnc3c2cnn3C(C)c2ccccc2)CC1` (stereo not given), for which the IC50 in experiment [1] was found to be 410 nM; in experiment [2], 950 nM; in experiment [3], 2100 nM.

For `FC(F)(F)c1ccccc1N1CCN(c2ncnc3c2cnn3-c2ccccc2)CC1`, the IC50 in experiment [1], in experiment [2] and in experiment [3] was more than 10000 nM each time.

`Oc1ccccc1N1CCN(c2ncnc3c2cnn3-c2ccccc2)CC1`: the IC50 in experiment [1] was 7 nM; in experiment [2], 60 nM; in experiment [3], 60 nM.

On to `COc1cnccc1N1CCN(c2ncnc3c2cnn3-c2ccccc2)CC1`, for which the half-inhibitory concentration (IC50) in experiment [1] is 230 nM; in experiment [2] it was 1510 nM.

Turning to `Fc1cccc(N2CCN(c3ncnc4c3cnn4-c3ccccc3)CC2)c1`, the figures for the half-inhibitory concentration (IC50) in experiment [1], in experiment [2] and in experiment [3] were 290 nM, 540 nM and 1210 nM, respectively.

For `COc1cc(C#N)ccc1N1CCN(c2ncnc3c2cnn3-c2ccccc2)CC1`, the IC50 came to 150 nM in experiment [1], 170 nM in experiment [2] and 1700 nM in experiment [3].

As for `COc1ccc(C#N)cc1N1CCN(c2ncnc3c2cnn3-c2ccccc2)CC1`, the half-maximal inhibitory concentration (IC50) in experiment [1] is 20 nM; in experiment [2] it was 50 nM; in experiment [3], more than 10000 nM.

Regarding `Fc1ccccc1N1CCN(c2ncnc3c2cnn3-c2ccccc2)CC1`, the 50% inhibitory concentration (IC50) in experiment [1] turned out to be 270 nM; in experiment [2], 680 nM; in experiment [3], 1120 nM.

For `COc1ccccc1N1CCN(c2ncnc3c2cnn3-c2ccccc2C)CC1`, the IC50 in experiment [1] came to 10 nM; in experiment [2] it was 250 nM; in experiment [3] it was 1000 nM.

For the molecule `COc1ccc(-n2ncc3c(N4CCN(c5ccccc5OC)CC4)ncnc32)cc1`, the concentration for half-maximal inhibition (IC50) in experiment [1] was determined as 230 nM; in experiment [2] it was 170 nM; in experiment [3] it was 2600 nM.

For the molecule `FC(F)(F)Oc1ccccc1N1CCN(c2ncnc3c2cnn3-c2ccccc2)CC1`, the concentration for half-maximal inhibition (IC50) in experiment [1], in experiment [2] and in experiment [3] was more than 10000 nM in each case.

As for `COc1ccc(-n2ncc3c(N4CCN(c5ccccc5OC)CC4)ncnc32)cn1`, the values for the IC50 in experiment [1] and in experiment [2] were 100 nM and 340 nM, respectively.

For `N#Cc1cccc(N2CCN(c3ncnc4c3cnn4-c3ccccc3)CC2)c1`, the half-maximal inhibitory concentration (IC50) came to 39 nM in experiment [1], 69 nM in experiment [2] and 220 nM in experiment [3].

As for `COc1ccccc1N1CCN(c2ncnc3c2cnn3-c2ccc(C#N)cc2)CC1`, the IC50 in experiment [1] was 17 nM; in experiment [2], 200 nM; in experiment [3] it was more than 10000 nM.

For `COc1ccccc1N1CCN(c2ncnc3c2[nH]c(=O)n3-c2ccccc2)CC1`, the half-inhibitory concentration (IC50) in experiment [1] is 53 nM; in experiment [2], 630 nM; in experiment [3], more than 10000 nM.

For `COc1ccccc1N1CCN(c2ncnc3c2nnn3-c2ccccc2)CC1`, the IC50 in experiment [1] worked out at 49 nM; in experiment [2], 430 nM; in experiment [3], 3300 nM.

Turning to `COc1ccccc1N1CCN(c2ncnc3c2cnn3-c2cccc(C)c2)CC1`, the half-inhibitory concentration (IC50) in experiment [1] came out at 50 nM; in experiment [2], 96 nM; in experiment [3], 10000 nM.

Take `COc1ccccc1N1CCC(c2ncnc3c2cnn3-c2ccccc2)CC1`: the half-inhibitory concentration (IC50) turned out to be 470 nM in experiment [1] and 1200 nM in experiment [2].

For the molecule `COc1ccccc1N1CCN(c2ncnc3c2ncn3-c2ccccc2)CC1`, the figures for the IC50 in experiment [1], in experiment [2] and in experiment [3] were 27 nM, 64 nM and 3500 nM, respectively.

For `COc1ccccc1N1C[C@@H]2C[C@H]1CN2c1ncnc2c1cnn2-c1ccccc1`, the half-maximal inhibitory concentration (IC50) in experiment [1] was 2300 nM; in experiment [2], 4100 nM; in experiment [3] it was more than 10000 nM.

For `COc1ccc(C(N)=O)cc1N1CCN(c2ncnc3c2cnn3-c2ccccc2)CC1`, the half-maximal inhibitory concentration (IC50) in experiment [1] was found to be 5 nM; in experiment [2], 37 nM; in experiment [3] it was 100 nM.

As for `COc1ccccc1N1CCN(c2ncnc3c2cnn3-c2ccncc2)CC1`, the results for the half-maximal inhibitory concentration (IC50) in experiment [1], in experiment [2] and in experiment [3] were 1200 nM, 1600 nM and 4400 nM, respectively.

Consider `COc1ccccc1N1C[C@H]2C[C@@H]1CN2c1ncnc2c1cnn2-c1ccccc1`, for which the IC50 in experiment [1], in experiment [2] and in experiment [3] was more than 10000 nM each time.

Take `COc1ccccc1N1CCN(c2ncnc3c2cnn3-c2ccc(F)cc2)CC1`: the IC50 in experiment [1] is 17 nM; in experiment [2], 46 nM; in experiment [3] it was more than 10000 nM.

As to `N#Cc1ccccc1N1CCN(c2ncnc3c2cnn3-c2ccccc2)CC1`, the values for the concentration for half-maximal inhibition (IC50) in experiment [1], in experiment [2] and in experiment [3] were 1810 nM, 2050 nM and 5990 nM, respectively.

`COc1ccccc1N1CCN(c2ncnc3c2cnn3-c2cc(F)cc(F)c2)CC1`: the IC50 was 8 nM in experiment [1], 90 nM in experiment [2] and more than 10000 nM in experiment [3].

Consider `OC1CCCCC1N1CCN(c2ncnc3c2cnn3-c2ccccc2)CC1` (stereo not given), for which the IC50 in experiment [1], in experiment [2] and in experiment [3] was more than 10000 nM throughout.

As to `COc1ccccc1N1CCCN(c2ncnc3c2cnn3-c2ccccc2)CC1`, the figures for the IC50 in experiment [1], in experiment [2] and in experiment [3] were 4 nM, 8 nM and 21 nM, respectively.

With `COc1c(C#N)cccc1N1CCN(c2ncnc3c2cnn3-c2ccccc2)CC1`, the half-maximal inhibitory concentration (IC50) is 1200 nM in experiment [1], 540 nM in experiment [2] and more than 10000 nM in experiment [3].

With `COc1ccccc1N1CCN(c2ccnc3c2cnn3-c2ccccc2)CC1`, the half-inhibitory concentration (IC50) in experiment [1] is 300 nM; in experiment [2], 4000 nM; in experiment [3] it was 600 nM.

As to `COc1cc(F)ccc1N1CCN(c2ncnc3c2cnn3-c2ccccc2)CC1`, the IC50 in experiment [1] was 10 nM; in experiment [2], 40 nM; in experiment [3], more than 10000 nM.

With `COc1c(F)cccc1N1CCN(c2ncnc3c2cnn3-c2ccccc2)CC1`, the IC50 was 2400 nM in experiment [1], 10000 nM in experiment [2] and more than 10000 nM in experiment [3].

`COc1ccccc1N1CC2(C1)CN(c1ncnc3c1cnn3-c1ccccc1)C2`: the figures for the IC50 in experiment [1] and in experiment [2] were 4400 nM and 2200 nM, respectively.

`COc1ccncc1N1CCN(c2ncnc3c2cnn3-c2ccccc2)CC1`: the half-inhibitory concentration (IC50) in experiment [1] was 9 nM; in experiment [2], 60 nM; in experiment [3], 510 nM.

For `COc1ccccc1N1CCN(c2ncnc3c2cnn3-c2cccc(C#N)c2)CC1`, the concentration for half-maximal inhibition (IC50) in experiment [1] was 33 nM; in experiment [2], 350 nM.

`COc1cccnc1N1CCN(c2ncnc3c2cnn3-c2ccccc2)CC1`: the IC50 in experiment [1] was found to be 60 nM; in experiment [2], 70 nM; in experiment [3], 950 nM.

As to `COc1ccccc1N1CCN(c2ncnc3c2cnn3-c2ncccc2F)CC1`, the IC50 in experiment [1] came out at 80 nM; in experiment [3], 7000 nM.
